By inhibition is commonly meant the change of the read-out against control, counted positive when it falls. A higher inhibition goes with a strong effect. For orientation: AUC means concentration integrated over time. Low readings indicate low exposure, high ones high exposure. One may read the Ki as a measure of affinity in units of concentration, obtained from inhibition or displacement. A higher Ki goes with lower affinity. One may read the IC50 as the concentration that inhibits the measured activity by half.

The target in series [1] is T1, unphosphorylated VEGF-R2Δ50 (FLVK) (Homo sapiens, UniProt P35968, DEL940-989/E990V).
T1 construct: VEGF-R2Δ50 contains residues 806-939 and 990-1171; made in house; host or cells: baculovirus/insect cell system
Nature of the series: VEGF-R2 coupled spectrophotometric assay, unphosphorylated construct (FLVK). Type of series: biochemical. The note with it: for inhibition at 0.05 µM: percent inhibition at 50 nM. In short, it runs like this:
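Human VEGF-R2Δ50 cytosolic kinase (residues 806-939/990-1171, E990V), baculovirus-expressed, unphosphorylated form. PK/LDH-coupled NADH oxidation at 340 nm with 20 mM poly(E4Y1), 3 mM ATP, 60 mM MgCl2, 2 mM MnCl2, 200 mM HEPES pH 7.5, 5-40 nM enzyme; Ki fitted by Morrison equation.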

A short description of another series: Mouse PK assay. Type of series: in vivo, B6 female mice. The note with it: po; for AUC / Cmax: female, B6, mouse, plasma, 50 mg/kg; for Cmax: p.o., read-out: Mouse Cmax, po ng-h/mL. The method, boiled down: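 Plasma levels were measured by HPLC with UV detection after acetonitrile precipitation, using extracted standards, in blood taken up to 4 h (0.5, 1, 2, 4 h) post-dose. Dosing: 50 mg/kg orally or intraperitoneally to two groups of four female B6 mice, vehicle PEG 400:acidified H2O 30:70 suspension.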

Series [2] can be described thus: Human liver microsome (HLM) assay. Type of series: in vitro ADME. The note with it: human liver microsomes. The method, then: Compound metabolism in human liver microsomes was measured by LC-MS analytical assay procedures as follows. First, human liver microsomes (HLM) were thawed and diluted to 5 mg/mL with cold 100 mM potassium phosphate (KPO4) buffer. Appropriate amounts of KPO4 buffer, NADPH-regenerating solution (containing B-NADP, glucose-6-phosphate, glucose-6-phosphate dehydrogenase, and MgCl2), and HLM were preincubated in 13×100 mm glass tubes at 37° C. for 10 min. (3 tubes per test compound—triplicate). Test compound (5 μM final) was added to each tube to initiate reaction and was mixed by gentle vortexing, followed by incubation at 37° C. […] Samples were centrifuged at 4000 rpm for 20 min. to precipitate proteins and salt (Beckman Allegra 6KR, S/N ALK98DO6, #634). Supernatant was transferred to new 12×75 mm glass tubes and evaporated by Speed-Vac centrifugal vacuum evaporator. Samples were reconstituted in 200 μL 0.1% formic acid/acetonitrile (90/10) and vortexed vigorously to dissolve. The samples were then transferred to separate polypropylene microcentrifuge tubes and centrifuged at 14000×g for 10 min. (Fisher Micro 14, S/N M0017580). […]
The combined compound samples were injected into the LC-MS system, composed of a Hewlett-Packard HP1100 diode array HPLC and a Micromass Quattro II triple quadruple mass spectrometer operating in positive electrospray SIR mode (programmed to scan specifically for the molecular ion of each test compound). Each test compound peak was integrated at each timepoint. […]

The subject of series [3] is human umbilical vein endothelial cells (HUVEC). Description: HUVEC+VEGF proliferation assay. The note with it: Homo sapiens, HUVEC, 72 h, VEGF 6 ng/mL, MTT. Type of series: cell-based. The method, boiled down:
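HUVEC (passage 3-4), serum-starved 24 h in F12K + 1% FBS, were pre-treated with compound for 1 h (0.1% DMSO final). They were then stimulated with VEGF at 6 ng/mL final. Proliferation was measured after 72 h by MTT dye reduction (4 h), with absorbance read at 595 nm.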

In the next series the target is T2, KDR (VEGFR2) (Homo sapiens, UniProt P35968).
T2 construct: expressed in transfected cells; host or cells: porcine aorta endothelial (PAE) cells
Nature of the series: KDR (VEGFR2) phosphorylation in PAE-KDR cells assay. The format is cell-based. The following applies: PAE cells overexpressing human KDR, VEGF stimulated; read-out: PAE KDR autophos IC50. How it is done: This assay determines the ability of a test compound to inhibit the autophosphorylation of KDR in porcine aorta endothelial (PAE)-KDR cells. PAE cells that overexpress human KDR were used in this assay. The cells were cultured in Ham's F12 media supplemented with 10% fetal bovine serum (FBS) and 400 ug/mL G418. Thirty thousands cells were seeded into each well of a 96-well plate in 75 μL of growth media and allowed to attach for 6 hours at 37° C. Cells were then exposed to the starvation media (Ham's F12 media supplemented with 0.1% FBS) for 16 hours. After the starvation period was over, 10 μL of test agent in 5% DMSO in starvation media were added to the test wells and 10 μL of the vehicle (5% DMSO in starvation media) were added into the control wells. The final DMSO concentration in each well was 0.5%. Plates were incubated at 37° C. for 1 hour and the cells were then stimulated with 500 ng/ml VEGF (commercially available from R & D System) in the presence of 2 mM Na3VO4 for 8 minutes. The cells were washed once with 1 mm Na3VO4 in HBSS and lysed by adding 50 μL per well of lysis buffer. One hundred μL of dilution buffer were then added to each well and the diluted cell lysate was transferred to a 96-well goat ant-rabbit coated plate (commercially available from Pierce) which was pre-coated with Rabbit anti Human Anti-flk-1 C-20 antibody (commercially available from Santa Cruz). The plates were incubated at room temperature for 2 hours and washed seven times with 1% Tween 20 in PBS. HRP-PY20 (commercially available from Santa Cruz) was diluted and added to the plate for a 30-minute incubation. Plates were then washed again and TMB peroxidase substrate (commercially available from Kirkegaard & Perry) was added for a 10-minute incubation. One hundred μL of 0.09 N H2SO4 was added to each well of the 96-well plates to stop the reaction. Phosphorylation status was assessed by spectrophotometer reading at 450 nm. IC50 values were calculated by curve fitting using a four-parameter analysis.

A further series deals with T3, PDGFRβ (Homo sapiens, UniProt P09619).
T3 construct: expressed in transfected cells; host or cells: porcine aorta endothelial (PAE) cells
Nature of the series: PAE-PDGFRβ phosphorylation in PAE-PDGFRB cells assay. Type of series: cell-based. The note with it: PAE cells overexpressing human PDGFRβ, PDGF-BB stimulated; read-out: PAE PDGFR autophos IC50. In short, it runs like this: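 PAE cells overexpressing human PDGFRβ, serum-starved 16 h (0.1% FBS), compound 1 h at 37° C (0.5% DMSO), then 1 μg/mL PDGF-BB with 2 mM Na3VO4 for 8 min. Receptor captured by anti-PDGFRβ, phosphotyrosine detected by HRP-PY20/TMB at 450 nm; IC50 by four-parameter fit.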

For the next series, the system named is HUVEC. Description: bFGF HUVEC proliferation. The format is cell-based, human. The note with it: Homo sapiens, HUVEC, bFGF stimulated HUVEC.

Where “and” joins values, the source holds several entries; their conditions need not be identical. Identical values can stand only once.

T2 sequence (P35968 20-1356): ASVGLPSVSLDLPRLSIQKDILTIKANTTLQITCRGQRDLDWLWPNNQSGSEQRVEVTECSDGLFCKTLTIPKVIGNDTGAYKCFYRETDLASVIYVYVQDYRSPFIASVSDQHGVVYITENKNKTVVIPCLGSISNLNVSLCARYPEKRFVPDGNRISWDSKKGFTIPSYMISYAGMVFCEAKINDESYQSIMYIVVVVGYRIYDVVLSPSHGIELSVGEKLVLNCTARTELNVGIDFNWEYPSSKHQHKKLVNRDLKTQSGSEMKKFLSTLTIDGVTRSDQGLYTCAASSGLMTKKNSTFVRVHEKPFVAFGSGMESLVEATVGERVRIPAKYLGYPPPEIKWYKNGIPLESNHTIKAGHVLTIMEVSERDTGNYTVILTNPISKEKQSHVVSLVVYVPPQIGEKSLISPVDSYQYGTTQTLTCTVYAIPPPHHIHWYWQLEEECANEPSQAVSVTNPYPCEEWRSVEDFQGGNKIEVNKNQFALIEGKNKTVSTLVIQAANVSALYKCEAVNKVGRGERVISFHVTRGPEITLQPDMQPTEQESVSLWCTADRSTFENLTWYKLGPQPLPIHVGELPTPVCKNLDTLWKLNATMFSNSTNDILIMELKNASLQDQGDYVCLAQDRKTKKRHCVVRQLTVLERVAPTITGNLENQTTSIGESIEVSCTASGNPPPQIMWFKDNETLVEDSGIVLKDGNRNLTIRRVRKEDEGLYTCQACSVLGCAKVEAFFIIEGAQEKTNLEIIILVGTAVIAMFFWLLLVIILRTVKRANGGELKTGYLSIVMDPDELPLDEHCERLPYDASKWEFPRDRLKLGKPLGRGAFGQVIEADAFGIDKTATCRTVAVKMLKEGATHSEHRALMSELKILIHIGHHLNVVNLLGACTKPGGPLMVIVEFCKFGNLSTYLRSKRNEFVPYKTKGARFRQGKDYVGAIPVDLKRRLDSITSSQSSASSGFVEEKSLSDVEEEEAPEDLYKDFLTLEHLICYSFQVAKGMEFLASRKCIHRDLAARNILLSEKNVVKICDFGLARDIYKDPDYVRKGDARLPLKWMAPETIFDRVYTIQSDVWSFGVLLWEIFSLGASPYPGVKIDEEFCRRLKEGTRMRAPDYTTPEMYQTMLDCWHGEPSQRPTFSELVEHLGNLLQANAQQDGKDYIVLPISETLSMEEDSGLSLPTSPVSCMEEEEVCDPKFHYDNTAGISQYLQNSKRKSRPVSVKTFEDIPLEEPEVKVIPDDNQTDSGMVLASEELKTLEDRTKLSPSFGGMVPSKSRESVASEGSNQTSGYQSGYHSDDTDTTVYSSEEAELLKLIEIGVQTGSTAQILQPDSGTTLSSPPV
T1 sequence (P35968 with tags, fused parts or gaps DEL940-989/E990V limits assumed): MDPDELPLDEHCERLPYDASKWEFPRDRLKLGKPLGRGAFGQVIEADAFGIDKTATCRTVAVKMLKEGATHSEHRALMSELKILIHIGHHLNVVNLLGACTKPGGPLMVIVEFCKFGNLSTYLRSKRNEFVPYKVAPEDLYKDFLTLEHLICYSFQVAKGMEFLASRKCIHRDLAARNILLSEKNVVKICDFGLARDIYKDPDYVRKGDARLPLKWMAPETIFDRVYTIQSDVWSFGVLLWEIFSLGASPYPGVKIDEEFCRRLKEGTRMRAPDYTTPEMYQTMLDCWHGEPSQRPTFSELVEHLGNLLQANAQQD
T3 sequence (P09619 33-1106): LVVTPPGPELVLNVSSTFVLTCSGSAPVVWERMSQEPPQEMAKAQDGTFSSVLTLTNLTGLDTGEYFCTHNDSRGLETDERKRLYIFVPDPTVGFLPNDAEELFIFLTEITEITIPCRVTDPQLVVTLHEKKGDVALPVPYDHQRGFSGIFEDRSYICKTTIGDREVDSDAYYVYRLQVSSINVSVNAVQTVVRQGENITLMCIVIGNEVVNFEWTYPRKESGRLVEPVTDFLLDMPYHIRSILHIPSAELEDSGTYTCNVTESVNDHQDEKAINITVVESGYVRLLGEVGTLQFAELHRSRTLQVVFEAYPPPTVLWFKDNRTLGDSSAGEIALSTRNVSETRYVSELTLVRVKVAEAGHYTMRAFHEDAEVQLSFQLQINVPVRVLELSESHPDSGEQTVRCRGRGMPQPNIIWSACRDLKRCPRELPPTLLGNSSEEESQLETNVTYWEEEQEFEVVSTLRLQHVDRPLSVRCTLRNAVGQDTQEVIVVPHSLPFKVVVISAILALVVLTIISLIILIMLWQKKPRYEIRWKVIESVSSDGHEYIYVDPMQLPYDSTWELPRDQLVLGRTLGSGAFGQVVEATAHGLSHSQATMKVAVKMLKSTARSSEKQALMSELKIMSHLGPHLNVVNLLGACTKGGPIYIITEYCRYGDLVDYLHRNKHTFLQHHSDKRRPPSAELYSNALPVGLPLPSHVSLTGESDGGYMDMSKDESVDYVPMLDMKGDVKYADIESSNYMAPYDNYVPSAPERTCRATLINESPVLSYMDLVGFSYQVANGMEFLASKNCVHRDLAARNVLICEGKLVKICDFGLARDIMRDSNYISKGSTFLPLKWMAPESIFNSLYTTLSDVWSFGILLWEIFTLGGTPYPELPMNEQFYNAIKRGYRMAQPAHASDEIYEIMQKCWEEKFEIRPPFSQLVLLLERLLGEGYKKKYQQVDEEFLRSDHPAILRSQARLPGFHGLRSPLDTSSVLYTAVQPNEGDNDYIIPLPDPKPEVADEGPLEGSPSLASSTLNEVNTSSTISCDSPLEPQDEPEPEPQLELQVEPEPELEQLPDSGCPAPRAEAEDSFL

For the compound `Cc1cc2cc(Nc3ccnc4cc(-c5nccn5C)sc34)ccc2n1C(=O)NC(C)C` [Example 2f, 5-(2-[1-methyl-1H-imidazol-2-yl]thieno[3,2-b]pyridin-7-ylamino)-2-methylindole-1-carboxylic acid isopropylamide], the inhibition at 0.05 µM in series [1] amounted to 2%. Further, in “Mouse PK assay”, the AUC came to 10600 ng·h/mL; the Cmax was determined as 7700 ng/mL; the “Mouse Cmin, po” value is listed as 163 ng/mL. In addition, in series [2], the “% remain (HLM-NADPH, 0.5 h)” value amounted to 70.9% and the “% remain (HLM-UDPGA, 0.5 h)” value stood at 119.4%.

As for `Cc1cc2cc(Nc3ccnc4cc(C(=O)N5CCC[C@H]5CO)sc34)ccc2n1C(=O)NC(C)C` [Example 2g, 5-(2-[(S)-2-(hydroxymethyl)pyrrolidine-1-carbonyl]thieno[3,2-b]pyridin-7-ylamino)-2-methylindole-1-carboxylic acid isopropylamide], in series [1], the Ki turned out to be 29.6 nM and 0.05 µM produced 82% inhibition. The IC50 in series [3] is above 33.3 nM. In the series “Mouse PK assay”, the AUC was 542 ng·h/mL; the Cmax amounted to 252 ng/mL; the “Mouse Cmin, po” value was determined as 6 ng/mL. Moreover, in series [2], the “% remain (HLM-NADPH, 0.5 h)” value amounted to 106% and the “% remain (HLM-UDPGA, 0.5 h)” value is 113.4%.

In series [1], `CO[C@@H]1CCN(C(=O)c2cc3nccc(Oc4ccc5c(c4)cc(C)n5C(=O)NC4CC4)c3s2)C1` [Example 4k, 5-[2-(3R-Methoxy-pyrrolidine-1-carbonyl)-thieno[3,2-b]pyridin-7-yloxy]-2-methyl-indole-1-carboxylic acid cyclopropylamide] displayed a Ki of 0.1 nM. This compound also yielded an inhibition at 0.05 µM in series [1] of 96%. For the same compound, the IC50 is 0.569 nM at KDR (VEGFR2), 10 nM on PDGFRβ and 5.8 nM in the series with HUVEC.

`COC[C@@H]1CCCN1C(=O)c1cc2nccc(Oc3ccc4c(cc(C)n4C(=O)NC4CC4)c3F)c2s1` [Example 5b] gave a Ki in series [1] of 0.504 nM. In series [1], testing at 0.05 µM gave an inhibition of 98%. Further, the figures for the IC50 at KDR (VEGFR2), on PDGFRβ and in the series with HUVEC were 0.5 nM, 13.1 nM and 13.6 nM, respectively.

As to `CNC(=O)n1c(C)cc2cc(Oc3ccnc4cc(C(=O)N5CC[C@@H](N(C)C)C5)sc34)ccc21` [Example 8g, 5-[(2-{[(3R)-3-(Dimethylamino)pyrrolidin-1-yl]carbonyl}thieno[3,2-b]pyridin-7-yl)oxy]-N,2-dimethyl-1H-indole-1-carboxamide], the Ki in series [1] amounted to 0.643 nM. For the same compound, the inhibition at 0.05 µM in series [1] was 99%. Also, the IC50 worked out at 0.15 nM in series [3], 15.4 nM on PDGFRβ and 9 nM in the series with HUVEC.

For `Cc1cc2cc(Oc3ccnc4cc(C(=O)N5CC[C@@H](N(C)C)C5)sc34)ccc2n1C(=O)NCCO` [Example 8l, 5-[(2-{[(3R)-3-(Dimethylamino)pyrrolidin-1-yl]carbonyl}thieno[3,2-b]pyridin-7-yl)oxy]-N-(2-hydroxyethyl)-2-methyl-1H-indole-1-carboxamide], in series [1], affinity was put at a Ki of 0.88 nM. Further, the inhibition at 0.05 µM in series [1] came to 88%. Also, the IC50 is 1.5 nM in series [3], 18.8 nM on PDGFRβ and 63 nM in the series with HUVEC.

`C#CCNC(=O)n1c(C)cc2cc(Oc3ccnc4cc(C(=O)N5CCC[C@@H]5COC)sc34)ccc21` [Example 8p, 5-[2-(2R-Methoxymethyl-pyrrolidine-1-carbonyl)-thieno[3,2-b]pyridin-7-yloxy]-2-methyl-indole-1-carboxylic acid prop-2-ynylamide] yielded a Ki in series [1] of 0.143 nM. In series [1], this compound returned an inhibition at 0.05 µM of 98%. Besides, the IC50 was 0.137 nM in series [3], 13 nM on PDGFRβ and 197 nM in the series with HUVEC.

The compound `CCCNC(=O)n1c(C)cc2cc(Oc3ccnc4cc(C(=O)N5CC[C@H](OC)C5)sc34)ccc21` [Example 9d, 5-[2-(3S-Methoxy-pyrrolidine-1-carbonyl)-thieno[3,2-b]pyridin-7-yloxy]-2-methyl-indole-1-carboxylic acid propylamide] gave a Ki in series [1] of 0.228 nM. In series [1], this compound displayed an inhibition at 0.05 µM of 99%. The figures for the IC50 on KDR (VEGFR2), on PDGFRβ and in the series on HUVEC were 1.47 nM, 25 nM and 143 nM, respectively.

`C#CCNC(=O)n1c(C)cc2cc(Oc3ccnc4cc(C(=O)N5CC[C@H](O)C5)sc34)ccc21` [Example 9j, 5-[2-(3S-Hydroxy-pyrrolidine-1-carbonyl)-thieno[3,2-b]pyridin-7-yloxy]-2-methyl-indole-1-carboxylic acid prop-2-ynylamide] displayed a Ki in series [1] of 0.162 nM. For the same compound, the inhibition at 0.05 µM in series [1] turned out to be 97%. The concentration for half-maximal inhibition (IC50) in series [3] is 0.29 nM; on PDGFRβ, 18 nM and 20 nM; in the series on HUVEC, 81 nM.

With `CCC(=O)n1c(C)cc2cc(Oc3ccnc4cc(C(=O)N5CC[C@H](OC)C5)sc34)ccc21` [Example 10a, 2-{[(3S)-3-Methoxypyrrolidin-1-yl]carbonyl}-7-[(2-methyl-1-propionyl-1H-indol-5-yl)oxy]thieno[3,2-b]pyridine], in series [1], the Ki turned out to be 4.7 nM. In addition, in series [1], the inhibition at 0.05 µM stood at 64%. Besides, the IC50 is 0.79 nM in series [3], 1.2 nM on KDR (VEGFR2) and 21 nM in the series on HUVEC.

The compound `CNC(=O)n1ccc2cc(Oc3ccnc4cc(-c5nc(C(C)(C)O)cs5)sc34)ccc21` [Example 31, 5-{2-[4-(1-Hydroxy-1-methyl-ethyl)-thiazol-2-yl]-thieno[3,2-b]pyridin-7-yloxy}-indole-1-carboxylic acid methylamide] gave a Ki in series [1] of 0.462 nM. The compound also showed an inhibition at 0.05 µM in series [1] of 97%. The IC50 in series [3] was 0.16 nM; at PDGFRβ, 8.1 nM and 6.3 nM; in the series on HUVEC, 101 nM.

(Values after patent US6833456B2, “Indolyl-urea derivatives of thienopyridines useful as antiangiogenic agents, and methods for their use” (Agouron Pharmaceuticals, Inc., priority 2002, dated 2004).)
